Columns and labels:
[1] = test system: intraperitoneal infiltration of eosinophils; experiment: Intraperitoneal infiltration of eosinophils in rat (Ascaris extract induced); format: in vivo; conditions: 3 mg/kg orally once a day for 9 days; Asc-sensitized male Wistar rats; eosinophils counted 48 hours after antigen induction
Protocol: Ascaris extract (Asc, protein amount 8 mg) was intraperitoneally administered to male Wistar rats to sensitize them. Seven days later, 4 mg protein amount of Asc was intraperitoneally administered to induce intraperitoneal infiltration of eosinophils. Forty-eight hours after the antigen induction, abdominal cavity was washed, and the infiltrated eosinophils were counted. The test compound (3 mg/kg) was orally administered once a day for 9 days from the day of antigen sensitization to one day before recovery of the infiltrated intraperitoneal cells.

[2] = test system: infiltration of eosinophils in the airway; experiment: Infiltration of eosinophils into bronchovesicles in rats (ovalbumin induced); format: in vivo; conditions: 10 mg/kg orally 5 minutes before and 5 hours after antigen induction; OA-sensitized male BN rats; bronchial wash 24 hours later
Protocol: An ovalbumin (OA) antigen (10 mg/kg) was intramuscularly administered to male BN rats, and 5 x 10^10 nonvial Bordetella pertussis cells were intraperitoneally administered to sensitize them. Fourteen days later, the rats were exposed to 2% OA to induce infiltration of eosinophils in the airway. Twenty-four hours later, bronchial tubes were washed and infiltrated cells were recovered to count the infiltrated eosinophils. The test compound (10 mg/kg) was orally administered 5 minutes before and 5 hours after the induction with antigen.

[3] = test system: adhesion of eosinophils to vascular endothelial cells; experiment: Inhibition of adhesion of eosinophils to TNF-treated HUVEC; format: cell-based; conditions: test compound concentration at TNF treatment and adhesion reaction; HUVEC treated with 100 U/ml TNF for 6 hours; adhesion reaction 20 minutes; human peripheral blood eosinophils
Protocol: Human umbilical vein-derived endothelial cells (HUVEC) were placed in a single layer in a 96 well plate and treated with 100 U/mi tumor necrosis factor (TNF) for 6 hours. The eosinophils obtained from peripheral blood of healthy human were fluorescence-labeled and layered on the TNF-treated HUVEC. After adhesion reaction for 20 minutes, unadhered eosinophils were removed by washing and fluorescent intensity of each well of the plate was measured to determine the eosinophils adhered to the HUVEC. The test compound was added so that the concentration at TNF treatment and adhesion reaction was 10-^SM.

| SMILES | Suppression of infiltration of eosinophils (%) [1] [%] | Suppression of infiltration of eosinophils (%) [2] [%] | Suppression of adhesion of eosinophils (%) [3] [%] |
| --- | --- | --- | --- |
| CC(=O)OCC(=O)Nc1cc(C#N)cc(N)c1Cl [3-(acetoxyacetylamino)-5-amino-4-chlorobenzonitrile] | 55 | 53 | 70 |
| COCC(=O)Nc1cc(C#N)cc(N)c1Cl [3-amino-4-chloro-5-(methoxyacetylamino)benzonitrile] | 42 | 56 | 62 |
| N#Cc1cc(N)c(Cl)c(NC(=O)CO)c1 [3-amino-4-chloro-5-(hydroxyacetylamino)benzonitrile] | 54 | 48 | 74 |

Source: patent EP0687468A2, “Pharmaceutical composition for suppressing infiltration of eosinophils” (Toyo Boseki Kabushiki Kaisha, priority 1994, dated 1995)
